Reference: US20040254252A1, “Compositions containing a combination of a pharmaceutical agent or a cosmetic agent and an oxy group-bearing aromatic aldehyde and their use in treatments” (priority 2003, published 2004)

How the values were obtained:
[1] = Franz cell percutaneous absorption analysis; format: in vitro ADME, human; details: from lotion formulation with 1.0% 4-ethoxybenzaldehyde; 24 hour period
Description: This lotion was then tested by Franz cell percutaneous absorption analysis to determine how much 4-EB could penetrate human skin over a 24 hour period. The lotion formulation above provided a flux rate of 4-EB through human skin of 30-50 micrograms/hour.

IL-1 induction of PGE-2 = IL-1 induction of PGE-2 in human skin fibroblasts, ELISA of culture medium; format: cell-based
Description: For this experiment, human skin fibroblasts were seeded into 12 well culture dishes at a density of 80,000 cells/wells in tissue culture medium and left overnight to attach to the dish. The next day, medium was removed and replaced with fresh medium containing either 1% ethanol as a diluent control, IL-1 at a concentration of 500 picograms/ml, or IL-1 plus 4-EB at either 250 μM or 500 μM. Cells were incubated for an additional 24 hours and at this time, the medium was removed and assayed by ELISA for the presence of PGE-2 in the culture medium. […] The percent inhibitions are as follows: 4-EB, 100%, 6% and 10% at 50 μM, 10 μM and 1 μM.
Subsequent studies were carried out to determine the dose-response of human skin fibroblasts to 4-EB. […] The results of the study are provided graphically in FIG. 3A.
For this experiment, human skin fibroblasts were seeded into 12 well culture dishes at a density of 80,000 cells/wells in tissue culture medium and left overnight to attach to the dish. The next day, medium was removed and replaced with fresh medium containing either 1% ethanol as a diluent control, IL-1 at a concentration of 500 picograms/ml, or IL-1 plus one of the compounds under investigation at a concentration of 1, 10, 50 or 100 μM. Cells were incubated for an additional 24 hours and at this time, the medium was removed and assayed by ELISA for the presence of PGE-2 in the culture medium.

[2] = tested on: TPA-induced PGE2 expression in keratinocytes; assay: TPA-induced PGE-2 in human skin keratinocytes, ELISA of culture medium; format: cell-based; design: percent inhibition of TPA-induced PGE-2: unit of the concentration uncertain; details: TPA 32 nM
Description: Similar in vitro studies as those described in Example 1 were run using human skin keratinocytes. The experimental set up was the same as described for Example 2, but replacing IL-1 with tetradecanoyl phorbol acetate (TPA) at a concentration of 32 nM as the agonist.
Similar in vitro studies as those described in Example 4 were run using human skin keratinocytes. The experimental set up was the same as described for Example 5 but replacing IL-1 with tetradecanoyl phorbol acetate (TPA) at a concentration of 32 nM as the agonist. The compounds tested were 2-ethoxybenzaldehyde (2-EB), and 3-ethoxybenzaldehyde (3-EB) and 4-ethoxybenzaldehyde (4-EB) in concentrations of either 10, 50, or 100 μM.

UV-induced erythema = assay: UVB-induced erythema on inner forearm of a volunteer, topical lotion; format: in vivo, human; details: next day, 14 hours post-irradiation
Description: This lotion was then tested to determine if it could prevent an inflammatory response when applied topically to human skin. For this study a lab volunteer was irradiated on a quarter sized spot on the inner forearm with 60-80 mJ of UVB light (a sunlamp). This dose was sufficient to cause a highly visible red erythema response. Immediately following irradiation on both arms, one arm was treated with the above 4-EB lotion while the other arm was treated with the same lotion formulation but with no 4-EB.

flux rate of 4-EB through human skin [1] | Structure (SMILES) | percent inhibition of IL-1 induced PGE-2 (IL-1 induction of PGE-2; 50 μM, IL-1 500 picograms/ml, 24 hours) | block of the IL-1 induction of PGE-2 (in words) (IL-1 induction of PGE-2; 100 μM, dose-response study) | inhibition of the IL-1 induction of PGE-2 (IL-1 induction of PGE-2; 250 μM, IL-1 500 picograms/ml, 24 hours) | inhibition of the IL-1 induction of PGE-2 (IL-1 induction of PGE-2; 500 μM, IL-1 500 picograms/ml, 24 hours) | percent inhibition of TPA-induced PGE-2 ([2]; 50 μM) | percent inhibition of TPA-induced PGE-2 ([2]; 1001 (unit uncertain)) | inhibition at 50 µM ([2]; Homo sapiens, Keratinocyte, 50 μM, read-out: percent inhibition of TPA-induced PGE-2) | inhibition at 100 µM ([2]; Homo sapiens, Keratinocyte, 100 μM, read-out: percent inhibition of TPA-induced PGE-2) | redness of the treated spot (UV-induced erythema) | inhibition of the IL-1 induced production of PGE-2 (in words) (IL-1 induction of PGE-2; 50 μM)
30-50 micrograms/hour | CCOc1ccc(C=O)cc1 [4-EB, 4-ethoxybenzaldehyde] | 82% | completely blocked | complete inhibition | complete inhibition | 79.9% | 94.9% | 79.9% | 94.9% | no redness | 
 | COc1ccc(C=O)cc1 [4-MB, 4-methoxybenzaldehyde] |  |  |  |  |  |  |  |  |  | did not appear to inhibit
